# Measurements reported in patent publication US6911470B1, “Polyoxometalate compounds as antiviral agents” (priority 1988, dated 2005).
# Legend:
# [1] = system: Friend retrovirus, strain FV-PLS; assay: Splenomegaly model in BALB/c mice infected with Friend virus; conditions: for % Effectiveness / Mean Spleen wt. (mg) ± SD: sacrifice day 16
# Procedure: Tests were conducted in whole infected mice using one of the compounds to the present invention. The methodology of this test is the same as was used in Ruprecht et al, Nature 323, 467-469, except that Friend virus was used instead of Rauscher virus.
# Comparison of Toxicity of Polyoxometalate Compounds Mice. Female BALB/c mice (3 to 4 weeks old), obtained from Charles River Laboratories (Raleigh, N.C.), were acclimatized in the animal facility for two weeks. They-were then inoculated (200 μl) into the peritoneal cavity with Friend retrovirus, strain FV-PLS. A virus inoculum [about 100 focus forming units (FFU)/mouse] was selected which caused a splenomegaly rate of 100% on day 16 after virus inoculation in untreated animals. The virus titer of the inoculum was determined by a UV/XC assay.
# In vivo antiviral experiments. Mice were inoculated intraperitoneally with virus at noon and then randomized into ten animals per treatment group. Five hours after virus inoculation, the mice were treated intraperitoneally with the compounds. Treatment was continued daily for 6 or 10 days. On day 16 after virus inoculation, the animals were sacrificed by carbon dioxide inhalation and their spleens removed under aseptic conditions and weighed.
# [2] = system: SIV; assay: Activity against SIV; type: cell-based, simian immunodeficiency virus; conditions: Table 2
# [3] = Comparison of toxicity of polyoxometalate compounds in mice (mortality, haematology); type: in vivo; design: MCV (mean corpuscular volume): unit not given here; conditions: BID × 6, 60 mkd i.p.
# Excerpt: Comparison of Toxicity of Polyoxometalate Compounds Mice.
# In vivo antiviral experiments. […] Treatment was continued daily for 6 or 10 days.
Compound,% Mortality ([1]; 30 mkd IP QD × 10) [%],% Effectiveness ([1]; 30 mkd IP QD × 10) [%],Mean Spleen wt. (mg) ± SD ([1]; 30 mkd IP QD × 10),% Mortality ([1]; 60 mkd IP QD × 10) [%],% Effectiveness ([1]; 60 mkd IP QD × 10) [%],Mean Spleen wt. (mg) ± SD ([1]; 60 mkd IP QD × 10) [mg],EC50 [2] [nM],Hct (hematocrit) ([3]; bled on day 17) [%],Hgb (hemaglobin) ([3]; bled on day 17) [g/dL],MCH ([3]; bled on day 17) [pg],MCHC (mean corpuscular hemoglobin concentration) ([3]; bled on day 17) [g/dL],MCV (mean corpuscular volume) ([3]; bled on day 17),PLT (platelates) (×1000) ([3]; bled on day 17),RBC (×1000000) ([3]; bled on day 17),RDW (width of red cells) ([3]; bled on day 17) [%],WBC (×1000) ([3]; bled on day 17),Mortality ([3]; dead/total)
"Cc1cn([C@H]2C[C@H](N=[N+]=[N-])[C@@H](CO)O2)c(=O)[nH]c1=O [Formula 22, 3′-azido-3′-deoxythymidine, reference compound]",0,38.4,"1,249 ± 1,152 mg",0,51.3,988 ± 836,2.88,,,,,,,,,,
"(ArgH^+)m(H^+)4-mST, where m=1-4 [(ARGH^+)nH^+(4−n)ST]",,,,,,,,18.16 ± 6.02,7.08 ± 2.51,17.8 ± 1.6,38.62 ± 3.49,46.08 ± 0.45,325 ×1000,3.95 ± 1.31 ×1000000,36.68 ± 1.31,6.28 ± 2.19 ×1000,0/5
